One data set relates to DD180 cells. Put plainly: Fibroblast populated collagen lattice (FPCL) contraction assay. The class given is cell-based, human. The settings on record: ≤25 pM. As to the method:
(§1) Tegavivint (BC-2059) powder was reconstituted it in 100% dimethyl sulfoxide (DMSO) to a 10_mM stock solution. The stock was diluted to 100 nM in serum-free media (α minimal essential medium, αMEM), and further diluted to 100 pM in serum-free αMEM immediately before the analyses were performed. Serial dilutions from 100 pM down to 0.78 pM were assessed in various assays. 0.001% DMSO in αMEM was used as the vehicle control, and αMEM alone was used as an untreated control, in a subset of analyses.
Fibroblast populated collagen lattice assays were performed on primary palmar fascia fibroblasts derived from the fibrotic palmar fascia of one patient with Dupuytren's disease (DD180) using the protocol described in Raykha, C., Crawford, J., Gan, B. S., Fu, P., Bach, L. A., and O'Gorman, D. B. (2013) IGF-II and IGFBP-6 regulate cellular contractility and proliferation in Dupuytren's disease. Biochimica et biophysica acta. 1832, 1511-9.

In data set [1] the test system is CTNNB1, EGR1, NRG1 and WISP1 mRNA levels. Put plainly: TaqMan gene expression analyses in DD180, PF180 and CT38 cells. It counts as cell-based, human. The procedure: as §1
Gene expression analyses were assessed in triplicate on a Real-Time PCR ABI Prism 7500. Total RNA samples were derived from syngeneic DD and PF cells cultured from the explant tissues from one patient with Dupuytren's disease (DD180 and PF 180) and 1 patient with no history of Dupuytren's disease (CT38) as a normal allogeneic control. RNA quality was assessed on an Agilent 2100 Bioanalyzer and 2 μg of high quality total RNA was reverse transcribed into cDNA first strand using the High-Capacity cDNA Archive Kit (Applied Biosystems) in accordance with the manufacturer's instructions. TaqMan gene expression assays were used to measure CTNNB1, EGR1, NRG1 and WISP1 mRNA levels after 48 hrs of treatment in cells cultured on type-1 collagen coated 6 well trays. The ΔΔCT method was used after confirmation of parallel PCR amplification efficiencies of target and housekeeping genes PCR reactions were carried out under the following conditions: Initial denaturation at 95° C. for 5 min followed by cycles of denaturation (95° C. for 15 sec), primer annealing (60° C. for 1 min) and transcript extension ([…]) for 40 cycles.
A general note: In qPCR the cycle at which signal appears reflects the starting amount.

For data set [2], the system named is primary palmar fascia fibroblasts derived from the fibrotic palmar fascia (DD249 cells). Put plainly: Alamar Blue proliferation/viability assay, DD249 cells. It counts as cell-based, human. The conditions noted are these: for proliferation/viability: DD249 cells, 48 and 72 hrs relative to 24 hrs. As to the method:
as §1
(§2) Proliferation/viability analyses were performed in triplicate on primary palmar fascia fibroblasts derived from the fibrotic palmar fascia (DD cells) of 2 patients with Dupuytren's disease (DD249, DD77) and syngeneic primary palmar fascia fibroblasts derived from visibly non-fibrotic palmar fascia (PF cells) from these patients (PF249, PF77). Cells were cultured on type-1 collagen coated 96 well trays for these analyses to better replicate substrate interactions in vivo. Two independent assays were used for these analyses: Alamar Blue assays for analyses up to 72 hrs in cells derive from 1 patient, and Water Soluble Tetrazolium-(WST-1) assays for analyses up to 24 hrs in cells derived from the other patients. Significant effects of treatment on proliferation over time were detected by ANOVA repeated measures.
(In general: Resazurin is reduced to fluorescent resorufin, in cell work by metabolically active cells.)

Another data set has as its target T1, TBL1 (Homo sapiens, UniProt O60907).
T1 sequence (O60907 1-577): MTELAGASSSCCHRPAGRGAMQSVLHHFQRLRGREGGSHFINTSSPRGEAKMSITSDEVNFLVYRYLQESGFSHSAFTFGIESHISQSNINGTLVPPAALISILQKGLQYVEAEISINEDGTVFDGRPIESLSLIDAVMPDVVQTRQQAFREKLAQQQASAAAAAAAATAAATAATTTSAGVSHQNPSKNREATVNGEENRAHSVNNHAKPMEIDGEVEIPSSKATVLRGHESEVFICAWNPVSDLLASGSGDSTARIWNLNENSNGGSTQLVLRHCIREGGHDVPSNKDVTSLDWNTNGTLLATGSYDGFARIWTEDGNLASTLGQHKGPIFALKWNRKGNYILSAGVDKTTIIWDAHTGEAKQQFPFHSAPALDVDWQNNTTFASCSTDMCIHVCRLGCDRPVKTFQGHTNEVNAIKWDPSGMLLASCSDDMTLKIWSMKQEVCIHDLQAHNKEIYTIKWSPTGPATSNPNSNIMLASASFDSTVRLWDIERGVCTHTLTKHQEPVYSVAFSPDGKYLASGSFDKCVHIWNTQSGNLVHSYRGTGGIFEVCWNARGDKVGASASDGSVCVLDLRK
The settings on record: background statement, no method given; cited from earlier work.

Data set [3] relates to cell lines derived from chromic myeloid leukemia (CML) patients and cell lines and primary cells derived from myeloproliferative neoplasm (MPN) patients. The settings on record: background statement; cited from earlier work.
Data set [4] has as its system syngeneic primary palmar fascia fibroblasts derived from visibly non-fibrotic palmar fascia (PF249 cells). In words: Alamar Blue proliferation/viability assay, PF249 cells. The conditions noted are these: for proliferation/viability: PF249 cells, 48 and 72 hrs relative to 24 hrs. It counts as cell-based, human. The procedure:
as §1, §2

Data set [5] relates to bleomycin-induced pulmonary fibrosis. In words: Bleomycin-induced pulmonary fibrosis mouse model, intranasal Tegavivint. It counts as in vivo, C57BL/6 wild-type mice. The conditions noted are these: 5 mg/kg biw intranasal. The procedure: In another pilot study, Tegavivint at 5 mg/kg was administered biw (twice a week) via intranasal delivery to C57BL/6 wild-type mice. Bleomycin was administered to the mice intratracheally on day 0 to induce pulmonary fibrosis, and Tegavivint or the vehicle (5% dextrose in water) was administered on days 6, 10, 14, 18 and 21. The purpose of this experiment was to evaluate the effect of topically-administered Tegavivint on bleomycin-induced pulmonary fibrosis in vivo.

Where [6] appears, read: ≤25 pM, 48 hrs, DD180, PF180, CT38 cells.
Where [7] appears, read: Topical Tegavivint alone (no bleomycin).

Turning to Tegavivint, the effects on contractility result with DD180 cells was “did not identify any consistent effects”. Further, in data set [1] (cells treated with ≥25 pM), the “effects on the expression of genes that associate with nuclear β-catenin” value was “No discernible effects”. The “effects on gene expression” value in data set [1] (≤25 pM) is reported as “did not identify any consistent effects”. In data set [1] (setting [6]), the CTNNB1 expression entry is “no evidence of a compensatory increase”. For the same substance, the EGR1 expression levels entry in data set [1] (setting [6]) is given as “did not see any evidence of BC-2059-induced changes”. Further, the NRG1 expression levels entry in data set [1] (setting [6]) is “did not see any evidence of BC-2059-induced changes”. For the same substance, the WISP1 expression levels entry in data set [1] (setting [6]) was “did not see any evidence of BC-2059-induced changes”. The proliferation/viability entry was “viable and able to proliferate to significantly greater cell numbers” in data set [2] (25 pM); “unable to proliferate” in data set [2] (50 pM); “proliferated to significantly greater cell numbers” in data set [4] (25 pM); “proliferated to significantly greater cell numbers” in data set [4] (50 pM). For the same substance, the “therapeutic window concentration (proliferation of fibrosis-derived but not syngeneic palmar fascia derived cells inhibited)” value in data set [2] (DD versus PF cells, preliminary analyses) is “approximately 50 pM”. The cytotoxic concentrations in data set [2] (fibrosis-derived fibroblasts, both proliferation/viability assays and visual inspection) is on record as over 100 pM; in data set [4] (syngeneic fibroblasts from visibly unaffected palmar fascia, both proliferation/viability assays and visual inspection) it was over 100 pM. Moreover, the “effects on cell proliferation/viability” value in data set [2] (≤25 pM) was “did not identify any consistent effects”. Further, the “interaction with TBL1” value on TBL1 is given as “interact with TBL1”. Besides, the “apoptosis and growth inhibition” value in data set [3] is “undergo apoptosis and growth inhibition”. In addition, the pulmonary compliance entry was “showed a trend towards increased compliance” in data set [5] (Tegavivint after bleomycin, compared to bleomycin only) and “caused an increase in compliance” in data set [5] (setting [7]). Further, the soluble collagen content entry in data set [5] (Tegavivint after bleomycin, compared with bleomycin-only) is listed as “significantly decreased the collagen level”; in data set [5] (setting [7]), “showed a slight increase in collagen”.
